Source: US5288709A, “Erythromycin derivatives” (priority 1991, dated 1994)
≈ marks a conversion by molar mass, not a printed value. Where two headings read alike, the source gives them in different places.

Columns and labels:
[1] = tested on: Streptococcus pyogenes C-203; assay: In-vivo acute mouse protection assay; design: species or system Streptococcus pyogenes; female Swiss albino mice; conditions: dosed 1 and 5 h post-infection, observed 7 days
Experimental: (§1) An acute mouse protection test was conducted on ten mice with each of three concentrations of selected compounds of the invention. Each concentration was a four-fold dilution of the previous concentration. The initial concentration will vary with the microorganism with which the mouse is challenged.
(§2) The acute mouse protection test was conducted on female, Swiss albino mice, 18-20 grams in weight. […] To check the potency of the inoculum, a titration of the indicated test organism was carried out in control animals. The titration determines the LD50 for a particular microorganism. The treatment groups of animals were dosed orally, by gavage, or subcutaneously with the test compounds at 1 and 5 hours post-infection and observed for 7 days. The ED50 were calculated using the mortality data collected.

Staphylococcus aureus 45 = assay: In-vitro antimicrobial activity primary screen (agar dilution MIC); format: cell-based; conditions: BHI agar, 20-24 h, read-out: MIC
How it was run: (§3)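 Growth inhibition was scored on Brain Heart Infusion agar after 20-24 h incubation at 35-37° C; the MIC is the lowest tested concentration yielding no growth, a slight haze or sparsely isolated colonies on the inoculum spot.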

[2] = tested on: Staphylococcus aureus 45 RAR2; assay: as above; format: cell-based; conditions: Staphylococcus aureus, 45RAR2, 24 h, BHI agar, 20-24 h
How it was run: as §3

[3] = tested on: Pseudomonas aeruginosa K799/WT; assay: as above; format: cell-based; conditions: Pseudomonas aeruginosa K799/WT; BHI agar, 20-24 h; read-out: MIC
How it was run: as §3

[4] = tested on: Streptococcus bovis A5169; assay: as above; format: cell-based; conditions: Streptococcus equinus, BHI agar, 20-24 h, read-out: MIC
How it was run: as §3

[5] = tested on: Enterococcus faecium ATCC 8043; assay: as above; format: cell-based; conditions: Enterococcus faecium, ATCC8043, 24 h
How it was run: as §3

Escherichia coli DC-2 = assay: as above; format: cell-based; conditions: DC2; Escherichia coli DC-2; BHI agar, 20-24 h; read-out: MIC
How it was run: as §3

[6] = tested on: Enterobacter aerogenes ATCC 13048; assay: as above; format: cell-based; conditions: Klebsiella aerogenes, ATCC13048, 24 h, Enterobacter aerogenes ATCC 13048; BHI agar, 20-24 h
How it was run: as §3

Escherichia coli H560 = assay: as above; format: cell-based; conditions: Escherichia coli H560; BHI agar, 20-24 h; read-out: MIC
How it was run: as §3

[7] = tested on: Streptococcus pyrogenes EES61; assay: as above; format: cell-based; conditions: BHI agar, 20-24 h, read-out: MIC
How it was run: as §3

[8] = tested on: Micrococcus luteus ATCC 4698; assay: as above; format: cell-based; conditions: ATCC4698, BHI agar, 20-24 h, read-out: MIC
How it was run: as §3

Acinetobacter SP CMX 669 = assay: as above; format: cell-based; conditions: SPCMX669; Acinetobacter SP CMX 669; BHI agar, 20-24 h; read-out: MIC
How it was run: as §3

[9] = tested on: Staphylococcus epidermidis 3519; assay: as above; format: cell-based; conditions: BHI agar, 20-24 h, read-out: MIC
How it was run: as §3

Escherichia coli JUHL = assay: as above; format: cell-based; conditions: Escherichia coli, 24 h
How it was run: as §3

[10] = tested on: Micrococcus luteus ATCC 9341; assay: as above; format: cell-based; conditions: ATCC9341, BHI agar, 20-24 h, read-out: MIC
How it was run: as §3

[11] = tested on: Staphylococcus aureus ATCC 6538P; assay: as above; format: cell-based; conditions: Staphylococcus aureus, ATCC6538P, 24 h, BHI agar, 20-24 h
How it was run: as §3

[12] = tested on: Streptococcus agalactiae CMX 508; assay: as above; format: cell-based; conditions: CMX508, BHI agar, 20-24 h, read-out: MIC
How it was run: as §3

Escherichia coli SS = assay: as above; format: cell-based; conditions: BHI agar, 20-24 h, read-out: MIC
How it was run: as §3

[13] = tested on: Pseudomonas aeruginosa K799/61; assay: as above; format: cell-based; conditions: Pseudomonas aeruginosa K799/61; BHI agar, 20-24 h; read-out: MIC
How it was run: as §3

[14] = tested on: Pseudomonas aeruginosa A5007; assay: as above; format: cell-based; conditions: Pseudomonas aeruginosa A5007; BHI agar, 20-24 h; read-out: MIC
How it was run: as §3

[15] = tested on: Streptococcus pyrogenes 2548 INDUC; assay: as above; format: cell-based; conditions: BHI agar, 20-24 h, read-out: MIC
How it was run: as §3

[16] = tested on: Providencia stuartii CMX 640; assay: as above; format: cell-based; conditions: CMX640; Providencia stuartii CMX 640; BHI agar, 20-24 h; read-out: MIC
How it was run: as §3

[17] = tested on: Pseudomonas aeruginosa BMH10; assay: as above; format: cell-based; conditions: Pseudomonas aeruginosa, BMH10, 24 h, BHI agar, 20-24 h
How it was run: as §3

Pseudomonas cepacia 2961 = assay: as above; format: cell-based; conditions: Burkholderia cepacia, BHI agar, 20-24 h, read-out: MIC
How it was run: as §3

[18] = tested on: Staphylococcus aureus A5177; assay: as above; format: cell-based; conditions: Staphylococcus aureus A5177; BHI agar, 20-24 h; read-out: MIC
How it was run: as §3

[19] = tested on: Staphylococcus aureus (NCTC 10649); assay: In-vivo acute mouse protection assay; design: species or system Staphylococcus aureus; female Swiss albino mice; conditions: Staphylococcus aureus, NCTC10649, sc, 168 h; subcutaneous; dosed 1 and 5 h post-infection, observed 7 days; read-out: ED50
Experimental: as §1, §2

[20] = tested on: Staphylococcus aureus CMX 686B; assay: In-vitro antimicrobial activity primary screen (agar dilution MIC); format: cell-based; conditions: CMX686B, BHI agar, 20-24 h, read-out: MIC
How it was run: (§4)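 MIC is read as the lowest compound level yielding no growth, slight haze or sparse colonies on the inoculum spot, relative to a drug-free plate. Strains were replicator-inoculated (1:100 dilution) onto BHI agar plates holding twelve dilutions and held at 35-37 °C for 20-24 h, with erythromycin A as comparator.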

[21] = tested on: Staphylococcus aureus CMX 553; assay: as above; format: cell-based; conditions: Staphylococcus aureus, CMX553, 24 h, BHI agar, 20-24 h, read-out: MIC
How it was run: as §4

[22] = tested on: Staphylococcus aureus CMX 503A; assay: as above; format: cell-based; conditions: Staphylococcus aureus, CMX503A, 24 h, BHI agar, 20-24 h, read-out: MIC
How it was run: as §4

[23] = tested on: Streptococcus pneumoniae (ATCC 6303); assay: In-vivo acute mouse protection assay; design: species or system Streptococcus pneumoniae; female Swiss albino mice; conditions: dosed 1 and 5 h post-infection, observed 7 days
Experimental: as §1, §2

Structure (SMILES): CC[C@H]1OC(=O)[C@H](C)[C@@H](O[C@H]2C[C@@](C)(OC)[C@@H](N)[C@H](C)O2)[C@H](C)[C@@H](O[C@@H]2O[C@H](C)C[C@H](N(C)C)[C@H]2O)[C@](C)(O)C[C@@H](C)[C@@H]2O[C@@]1(C)[C@@H](O)[C@H]2C [Example 15, (4"S,9S,11S)-4"-Amino-9-deoxo-4",12-dideoxy-9,12-epoxyerythromycin A]
- ED50 ([1]; C203, 168 h, oral): 47.9 mg/kg
- ED50 ([1]; C203, sc, 168 h, subcutaneous): 5 mg/kg
- MIC (Staphylococcus aureus 45): 0.39 µg/mL (≈ 0.544 µM)
- MIC [2]: 0.39 µg/mL (≈ 0.544 µM)
- MIC [3]: 100 µg/mL (≈ 139 µM)
- MIC [4]: 0.01 µg/mL (≈ 0.0139 µM)
- MIC [5]: 0.1 µg/mL (≈ 0.139 µM)
- MIC (Escherichia coli DC-2): 6.2 µg/mL (≈ 8.65 µM)
- MIC [6]: 50 µg/mL (≈ 69.7 µM)
- MIC (Escherichia coli H560): 3.1 µg/mL (≈ 4.32 µM)
- MIC [7]: 0.02 µg/mL (≈ 0.0279 µM)
- MIC [8]: 0.05 µg/mL (≈ 0.0697 µM)
- MIC (Acinetobacter SP CMX 669): 6.2 µg/mL (≈ 8.65 µM)
- MIC [9]: 0.2 µg/mL (≈ 0.279 µM)
- MIC (Escherichia coli JUHL): 12.5 µg/mL (≈ 17.4 µM)
- MIC [10]: 0.01 µg/mL (≈ 0.0139 µM)
- MIC [11]: 0.39 µg/mL (≈ 0.544 µM)
- MIC [12]: 0.02 µg/mL (≈ 0.0279 µM)
- MIC (Escherichia coli SS): 0.1 µg/mL (≈ 0.139 µM)
- MIC [13]: 0.78 µg/mL (≈ 1.09 µM)
- MIC [14]: > 100 µg/mL
- MIC [15]: 6.2 µg/mL (≈ 8.65 µM)
- MIC [16]: > 100 µg/mL
- MIC [17]: 50 µg/mL (≈ 69.7 µM)
- MIC (Pseudomonas cepacia 2961): > 100 µg/mL
- MIC [18]: 1.56 µg/mL (≈ 2.18 µM)
- ED50 [19]: 30.1 mg/kg
- MIC [20]: 0.39 µg/mL (≈ 0.544 µM)
- MIC [21]: 0.2 µg/mL (≈ 0.279 µM)
- MIC [22]: 0.39 µg/mL (≈ 0.544 µM)
- ED50 ([23]; ATCC6303, 168 h, oral, read-out: ED50): 37.3 mg/kg
- ED50 ([23]; ATCC6303, sc, 168 h, subcutaneous): 4 mg/kg
